Data on 19 compounds can be found in PMC9218946, “Identification of a Subtype-Selective Allosteric Inhibitor of GluN1/GluN3 NMDA Receptors” (Frontiers in Pharmacology, 2022).

The structures appear in SMILES notation. Where a name gives a salt, the structure may show the parent alone.

Assay [1] addresses T1, GluN1/GluN3A receptors (UniProt Q05586+Q9R1M7). Put plainly: High-throughput Fluo-4 calcium assay (FDSS/μCell) in HEK-293 cells stably expressing GluN1/GluN3A. The assay is classed as cell-based, human GluN1-1a, rat GluN3A. More on the design: expressed in transfected cells. The following applies: primary and secondary screening. As for the experimental part:
The HEK-293 cells stably expressing GluN1/GluN3A receptors were seeded at a density of 10,000 cells/well in the 384-well plates, and expression was induced with 1 μg/ml doxycycline for 24–28 h. Then the culture medium was removed, Fluo-4 (Invitrogen) was loaded and the cells were incubated in the 37°C incubator away from light for 1 h ([Gee et al., 2000]). The plates were gently washed twice with Ca^2+-free buffer and then incubated with one of the 2560 compounds (from the Chinese National Compound Library) or DMSO (1% and 0.33%) for 20 min. A fixed concentration of 30 μM and dual concentrations of 10 μM and 30 μM were applied in the primary and secondary screening, respectively. Two replicates were set up for each condition. […] A FDSS/μCell platform (Hamamatsu) was used to measure the fluorescence signals. The excitation (Ex) and emission (Em) wavelengths were set to 480 and 540 nm, respectively. The inhibitory effects of tested compounds were compared by the ratios of fluorescence (F) with (F drug) and without (F control) the compounds. The F control value in these assays represented the value of basal Fluo-4 fluorescence plus glycine-stimulated fluorescence, and the F drug indicated the total Fluo-4 fluorescence after treatment of the drugs. Both the F drug and F control values were taken at the peak. The Ca^2+-free buffer used to dilute Fluo-4 and wash cell-plates contained (in mM): 140 NaCl, 5 KCl, 1 MgCl2, 10 glucose, 10 HEPES, and 0.5 EGTA. The pH was adjusted to 7.2 using NaOH. To dilute the compounds, 2 mM of free Ca^2+ was added in addition to the other components of the buffer.

The target of assay [2] is T1, GluN1/GluN3A receptors. Put plainly: Whole-cell patch-clamp recording on GluN1/GluN3A Flp-in T-REx 293 stable cell lines. The following applies: for I drug/I control: 3 μM compound, whole-cell patch-clamp, mean ± SEM, drug application order as in FDSS/μCell Ca2+ imaging (CGP-78608, then glycine); for remaining activity at 3 µM: Flp-In-T-REx-293, read-out: I drug/I control. Also noted: expressed in transfected cells. The format is cell-based, human GluN1-1a, rat GluN3A. The procedure: To establish GluN1/GluN3A stable cell lines, the human GluN1-1a (GenBank: NP_015566.1) and the rat GluN3A (GenBank: NP_612555.1) genes were subcloned into the pcDNA5-FRT-To and pcDNA3.1 vectors, respectively. An EGFP tag was added to the C-terminus of GluN1 or GluN3A using a T2A linker for identification of transfected cells during transient transfection. Point mutations were introduced by site-directed mutagenesis using PrimeSTAR (Takara). The human GluN2A (GenBank: NP_000824.1) gene was subcloned into the pcDNA3.1 vector. The chimeras GluN3A^670-673 MWPL/LEPF and GluN2A^550-553 LEPF/MWPL were generated using In-Fusion HD Cloning kits (Takara). All constructs were confirmed by DNA sequencing (Beijing Genomics Institute).
The Flp-in T-Rex 293 cell lines (Invitrogen), stably expressing GluN1/GluN3A were grown in DMEM basal medium (Gibco) supplemented with 10% fetal bovine serum (FBS, Invitrogen), 15 μg/ml blasticidin S (Invitrogen), 50 μg/ml hygromycin B (Invitrogen) and 500 μg/ml G418 (Gibco). Expression in cell lines was induced with 1 μg/ml doxycycline (Invitrogen) 24–28 h prior to the experiments. Chinese hamster ovary (CHO) cells were grown in DMEM-F12 basal medium (Gibco) supplemented with 10% FBS. In the study on the action sites of WZB117, all whole-cell patch-clamp recordings were performed on CHO cells. The transfections were carried out using Lipofectamine 3000 transfection reagent (Thermo Fisher) according to the manufacturer’s instructions. All cells mentioned above were cultured in a 5% CO2 incubator at 37°C and passaged every other day at a ratio of 1:3.
Whole-cell patch-clamp recordings were performed at room temperature (22–25°C) using an EPC-10 amplifier and Patch Master Software (HEKA). Pipettes were pulled from borosilicate glass capillaries (World Precision Instruments), and the resistances were 3–5 MΩ when filled with the intracellular solution. The extracellular solution contained (in mM): 140 NaCl, 2.8 KCl, 1 CaCl2, 10 HEPES and 20 sucrose (290–300 mOsm), pH adjusted to 7.3 using NaOH. The pipette solution contained (in mM): 115 CsF, 10 CsCl, 10 HEPES and 10 BAPTA (280–290 mOsm), pH adjusted to 7.2 using CsOH ([Grand et al., 2018]). When recording in hippocampal neurons, the extracellular solution contained (in mM): 140 NaCl, 5 KCl, 1 CaCl2, 1.25 MgCl2, 10 glucose, and 10 HEPES, and the pH was adjusted to 7.4 using NaOH, and the pipette solution contained (in mM): 140 KCl, 1 MgCl2, 10 EGTA, and 10 HEPES, and the pH was adjusted to 7.2 using KOH ([Xie et al., 2020]). Drug-containing solutions were applied through an RSC-200 Rapid Solution Changer with a 9-tube head (BioLogic Co., France), in which the cell is positioned close to the output of a capillary. The solution, containing either one drug or a combination of different drugs, to be assayed flows out of the capillary at a moderate flow rate by gravity. The lifted cell, exposed to this stream, rapidly equilibrates in the perfusion solution. Whole-cell patch-clamp recordings in heterologous cells and hippocampal neurons were performed at a holding potential of −60 mV. Currents were sampled at 10 kHz and low pass filtered at 2.9 kHz. To record the native GluN1/GluN3 receptor-mediated currents, the extracellular solution was supplemented with 10 μM bicuculline (Sigma-Aldrich), 2 μM NBQX (Topscience), 100 μM D-APV (MCE), and 50 μM strychnine (UHN Shanghai) to block γ-aminobutyric acid type A (GABAA), α-amino-3-hydroxy-5-methylisoxazole-4-propionate (AMPA), GluN1/GluN2 NMDA and glycine receptors, respectively. To record the native GluN2-NMDARs-mediated currents, 10 μM bicuculline and 2 μM NBQX were added into the extracellular solution to block GABAA receptors and AMPA receptors, respectively ([Grand et al., 2018]; [Otsu et al., 2019]; [Zhu et al., 2020]).
Patch-clamp data were processed using Clampfit 10.4 (Molecular Device, Sunnyvale, CA, United States) and analyzed with GraphPad Prism 5.0 (GraphPad Software, San Diego, CA, United States). […]
On the technique in general: In patch-clamp work, channel activity is measured electrically.

The test system of the next assay is GluN3A. The following applies: ref Yao and Mayer, 2006; cited from earlier work.
A further assay concerns the target GluN1/GluN3 receptors. Also noted: method as in Zhu et al., 2020. The following applies: ref Zhu et al., 2020; cited from earlier work.

T1 sequence (Q9R1M7 24-1135, other chains not shown): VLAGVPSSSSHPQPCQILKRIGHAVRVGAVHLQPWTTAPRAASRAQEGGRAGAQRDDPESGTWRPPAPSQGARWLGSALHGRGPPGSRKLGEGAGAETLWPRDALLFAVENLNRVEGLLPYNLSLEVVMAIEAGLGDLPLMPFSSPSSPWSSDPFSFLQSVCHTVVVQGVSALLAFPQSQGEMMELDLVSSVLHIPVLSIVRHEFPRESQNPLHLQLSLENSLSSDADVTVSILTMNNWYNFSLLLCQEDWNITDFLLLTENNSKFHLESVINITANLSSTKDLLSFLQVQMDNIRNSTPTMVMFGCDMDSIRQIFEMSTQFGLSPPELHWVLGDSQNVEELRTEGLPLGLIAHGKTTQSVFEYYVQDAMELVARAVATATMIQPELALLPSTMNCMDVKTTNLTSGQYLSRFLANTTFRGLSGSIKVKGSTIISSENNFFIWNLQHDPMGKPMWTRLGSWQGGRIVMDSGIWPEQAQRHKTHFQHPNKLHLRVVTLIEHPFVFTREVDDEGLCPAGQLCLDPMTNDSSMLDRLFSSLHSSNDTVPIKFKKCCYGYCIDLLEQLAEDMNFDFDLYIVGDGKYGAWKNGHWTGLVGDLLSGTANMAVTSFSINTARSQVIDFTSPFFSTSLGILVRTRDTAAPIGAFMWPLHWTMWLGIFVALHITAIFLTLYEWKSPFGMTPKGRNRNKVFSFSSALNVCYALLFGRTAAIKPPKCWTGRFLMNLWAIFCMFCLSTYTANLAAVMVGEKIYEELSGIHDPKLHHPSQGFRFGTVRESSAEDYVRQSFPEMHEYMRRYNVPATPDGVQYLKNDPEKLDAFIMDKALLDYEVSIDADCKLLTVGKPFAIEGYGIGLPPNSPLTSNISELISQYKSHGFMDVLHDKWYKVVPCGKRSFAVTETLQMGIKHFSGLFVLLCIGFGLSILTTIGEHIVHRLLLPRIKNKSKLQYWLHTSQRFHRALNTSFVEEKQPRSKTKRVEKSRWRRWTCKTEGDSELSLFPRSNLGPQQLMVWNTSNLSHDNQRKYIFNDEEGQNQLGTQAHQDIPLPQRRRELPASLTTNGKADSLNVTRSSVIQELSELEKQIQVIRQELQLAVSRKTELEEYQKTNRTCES

As for `Nc1nc2ccc(OC(F)(F)F)cc2s1` [riluzole], the “identification in HTS” value at GluN1/GluN3A receptors [1] was “identified in both the primary screening and secondary screening”.

For `COc1ccc(S(=O)(=O)N(CCO)c2ccccc2CN(C)C/C=C/c2ccc(Cl)cc2)cc1.O=P(O)(O)O` [KN93 Phosphate], the “I drug/I control” value on GluN1/GluN3A receptors [2] is on record as 0.90 ± 0.02.

`CC(C)c1cc(C(C)C)c(CC(=O)NS(=O)(=O)Oc2c(C(C)C)cccc2C(C)C)c(C(C)C)c1` [Avasimibe]: the remaining activity at 3 µM on GluN1/GluN3A receptors [2] came to 86 ± 3%.

On to `O=C(O)c1cc(O)c2c(c1)C(=O)c1cccc(O)c1C2=O` [Rhein], for which the remaining activity at 3 µM at GluN1/GluN3A receptors [2] came out at 80 ± 4%.

Take `Cc1[nH]c(/C=C2\C(=O)Nc3ccccc32)c(C)c1CCC(=O)O` [SU6668]: at GluN1/GluN3A receptors [2], the remaining activity at 3 µM was 89 ± 4%.

Consider `NCC(=O)O` [glycine], for which the “higher affinity for GluN3A than for GluN1” value in the assay on GluN3A is 650 fold.

As to `CCOC(=O)Nc1ccc(NCc2ccc(F)cc2)nc1N` [flupirtine maleate], the “identification in HTS” value at GluN1/GluN3A receptors [1] was “identified in both the primary screening and secondary screening”.

On to `Nc1n[n+]([O-])c2ccccc2[n+]1[O-]` [Tirapazamine], for which, at GluN1/GluN3A receptors [2], the remaining activity at 3 µM was 103 ± 5%.

As to `O=c1[nH]c2cc(Cl)ccc2c(O)c1-c1cccc(Oc2ccccc2)c1` [L-701324], on GluN1/GluN3A receptors [1], the “identification in HTS” value is “identified in both the primary screening and secondary screening”.

In the case of `Oc1ccc(-c2nc3cc(O)cc(Br)c3o2)cc1` [WAY200070, 7-bromo-2-(4-hydroxyphenyl) benzoxazol-5-ol], the remaining activity at 3 µM at GluN1/GluN3A receptors [2] was 53 ± 2%.

In the case of `Cc1ccc(CN(Cc2ccc(-c3ccccc3S(=O)(=O)NC#N)cc2)C(=O)c2ccccc2Cl)cc1` [S0859, 2-chloro-N-[2'-(N-cyanosulfamoyl)biphenyl-4-ylmethyl]-N-(4-methylbenzyl) benzamide], on GluN1/GluN3A receptors [2], the remaining activity at 3 µM came to 48 ± 2%.

Regarding `COc1ccc(OCC(c2ccc(OC)cc2)N2Cc3ccccc3C2=O)cc1` (stereo not shown) [EU1180-438], the IC50 (commonly the concentration that inhibits the measured activity by half) on GluN1/GluN3 receptors is 1.8 ± 0.3 µM.

Turning to `COc1cc(OC)c(C=C2C(O)=Nc3ccccc32)c(OC)c1` [IC261], the remaining activity at 3 µM on GluN1/GluN3A receptors [2] is 88 ± 1%.

For `CC(C)(O)CC(=O)NCCn1ccc2ncnc(Nc3ccc(Oc4cccc(C(F)(F)F)c4)c(Cl)c3)c21` [TAK285], the remaining activity at 3 µM on GluN1/GluN3A receptors [2] is 92 ± 6%.

`NC(=O)N1CCC(CC(=O)N2CCC([C@H]3c4ncc(Br)cc4CCc4cc(Cl)cc(Br)c43)CC2)CC1` [Lonafarnib]: the remaining activity at 3 µM on GluN1/GluN3A receptors [2] amounted to 98 ± 2%.

On to `CNc1nc(-c2ccc3c(N)n[nH]c3c2)cc(N2C[C@@H](C(=O)NC3CCCCC3)CC[C@H]2C)n1` [GSK2334470], for which the remaining activity at 3 µM at GluN1/GluN3A receptors [2] amounted to 84 ± 4%.

On to `N[C@H](CO)C(=O)O` [D-serine], for which the “identification in HTS” value at GluN1/GluN3A receptors [1] was “identified in both the primary screening and secondary screening”.

Turning to `CCCCCCCCCCCCCCCCn1cc[n+](Cc2ccccc2)c1C.[I-]` [NH125], on GluN1/GluN3A receptors [2], the “I drug/I control” value was 0.84 ± 0.03.

Consider `O=C(O)c1cc(=O)c2c(Cl)cc(Cl)cc2[nH]1` [5,7-DCKA], for which the “identification in HTS” value at GluN1/GluN3A receptors [1] is “identified in both the primary screening and secondary screening”.
